Data on five molecules can be found in ChEMBL document CHEMBL1151074, “RATIONAL DESIGN, SYNTHESIS, AND SERINE PROTEASE INHIBITORY ACTIVITY OF NOVEL P1-ARGININOYL HETEROCYCLES” (Bioorg Med Chem Lett, 1997).

The IC50 is the concentration at which inhibition is half-maximal.

Assay [1] addresses Plasminogen (Rattus norvegicus, UniProt Q01177). Description: Inhibitory concentration against plasmin.
Assay [2] in a line: Inhibitory concentration against factor Xa(FXa).
In assay [3] the target is Serine protease 1 (Homo sapiens, UniProt P07477). The assay can be described thus: Inhibitory concentration against trypsin.
Serine protease 1, sequence (P07477 whole entry): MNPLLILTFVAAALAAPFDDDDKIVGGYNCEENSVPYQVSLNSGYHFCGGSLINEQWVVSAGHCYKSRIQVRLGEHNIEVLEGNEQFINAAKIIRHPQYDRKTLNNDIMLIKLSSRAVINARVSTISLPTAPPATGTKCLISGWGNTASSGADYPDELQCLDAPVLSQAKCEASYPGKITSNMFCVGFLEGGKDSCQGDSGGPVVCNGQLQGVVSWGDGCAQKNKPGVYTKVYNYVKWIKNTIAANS
Assay [4] has as its target Prothrombin (Homo sapiens, UniProt P00734). Description: Inhibitory concentration against thrombin(FIIa).

Plasminogen, sequence (Q01177 97-581 limits assumed): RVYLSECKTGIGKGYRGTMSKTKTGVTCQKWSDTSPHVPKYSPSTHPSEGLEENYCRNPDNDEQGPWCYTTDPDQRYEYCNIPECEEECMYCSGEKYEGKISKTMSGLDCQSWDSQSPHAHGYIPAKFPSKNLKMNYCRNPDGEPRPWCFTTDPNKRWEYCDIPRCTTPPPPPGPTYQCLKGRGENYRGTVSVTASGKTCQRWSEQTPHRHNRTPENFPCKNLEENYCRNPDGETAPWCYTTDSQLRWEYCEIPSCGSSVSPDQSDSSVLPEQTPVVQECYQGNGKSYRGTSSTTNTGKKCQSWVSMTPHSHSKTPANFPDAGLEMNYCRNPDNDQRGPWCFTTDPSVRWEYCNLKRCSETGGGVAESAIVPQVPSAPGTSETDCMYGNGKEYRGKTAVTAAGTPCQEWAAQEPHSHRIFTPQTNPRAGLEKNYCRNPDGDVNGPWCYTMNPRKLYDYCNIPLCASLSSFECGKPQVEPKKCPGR
Plasminogen, sequence (Q01177 582-812 limits assumed): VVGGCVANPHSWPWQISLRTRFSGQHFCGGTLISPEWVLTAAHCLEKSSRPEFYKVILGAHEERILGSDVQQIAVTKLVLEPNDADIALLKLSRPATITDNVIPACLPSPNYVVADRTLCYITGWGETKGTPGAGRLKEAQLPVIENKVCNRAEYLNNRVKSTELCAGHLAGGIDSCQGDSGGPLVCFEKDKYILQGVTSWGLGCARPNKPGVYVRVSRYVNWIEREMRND

With `CC(=O)N[C@H](Cc1ccccc1)C(=O)N1CCC[C@H]1C(=O)N[C@H]1CCCN(C(=N)N)C1O` (some centres undefined), the half-inhibitory concentration (IC50) in assay [1] is > 2.5 µM; in assay [2], > 2.5 µM; in assay [3] it was 0.156 µM; in assay [4] it was 0.284 µM.
Turning to `CC(=O)N[C@H](Cc1ccccc1)C(=O)N[C@@H](Cc1cccc2ccccc12)C(=O)N[C@H]1CCCN(C(=N)N)C1O` (some centres undefined), the half-inhibitory concentration (IC50) in assay [1] was < 0.025 µM; in assay [3] it was 0.025 µM; in assay [4] it was > 2.5 µM.
As to `CC(=O)N[C@H](Cc1ccccc1)C(=O)N[C@@H](Cc1cccc2ccccc12)C(=O)N[C@@H](CCCN=C(N)N)C(=O)c1nc2ccccc2o1`, the concentration for half-maximal inhibition (IC50) in assay [1] was 0.0142 µM; in assay [2], 0.029 µM; in assay [3], 0.0064 µM; in assay [4] it was > 2.5 µM.
Turning to `CC(C)(C)CC(=O)N[C@H](Cc1ccccc1)C(=O)N1CCC[C@H]1C(=O)N[C@@H](CCCNC(=N)N)C(=O)c1nc2ccccc2o1`, the half-inhibitory concentration (IC50) in assay [1] is 1.32 µM; in assay [2], 0.11 µM; in assay [3], 0.0023 µM; in assay [4], 0.068 µM.
On the same counts, the results for `CC(C)(C)CC(=O)N[C@H](Cc1ccccc1)C(=O)N1CCC[C@H]1C(=O)N[C@@H](CCCN=C(N)N)C(=O)c1nc2ccccc2[nH]1` are > 2.5 µM, > 2.5 µM, 1.01 µM and 0.0921 µM.
